Measured values from patent publication US11691972B2, “Compounds for targeted degradation of BRD9” (C4 Therapeutics, Inc., priority 2020, dated 2023).

How the values were obtained:
Yamato-SS cells = assay: Confluence (growth) over time in Yamato-SS cells; format: cell-based, human
Plasma stability, mouse = format: in vitro ADME
Plasma stability, dog = format: in vitro ADME
PPB, mouse = format: in vitro ADME; settings: plasma
PPB, rat = format: in vitro ADME; settings: plasma
PPB, dog = format: in vitro ADME; settings: plasma
PPB, human = format: in vitro ADME; settings: plasma
[1] = Hepatocyte stability, rat; format: in vitro ADME; settings: rat hepatocytes; read-out: Hepatocyte stability, Clint scaled ws
[2] = Hepatocyte stability, dog; format: in vitro ADME; settings: dog hepatocytes; read-out: Hepatocyte stability, Clint scaled ws
[3] = Hepatocyte stability, human; format: in vitro ADME; settings: human hepatocytes; read-out: Hepatocyte stability, Clint scaled ws
hERG = hERG (Homo sapiens, UniProt Q12809); assay: hERG
IV PK, rat = format: in vivo; settings: for IV PK AUC(0-last) / IV PK Cmax: dose-normalised; for clearance / Vd / half-life: in vivo; for clearance: read-out: IV PK CL; for Vd: read-out: IV PK Vdss; for half-life: read-out: IV PK t1/2 (converted)
PO PK, rat = format: in vivo; settings: for PO PK AUC(0-last) / PO PK Cmax: dose-normalised; for bioavailability / half-life: in vivo; for bioavailability: read-out: PO PK F%; for half-life: read-out: PO PK t1/2 (converted)
Yamato-SS = assay: Synovial sarcoma xenograft model Yamato-SS, tumor volume; format: in vivo; settings: BALB/c nude mice
Experimental: (§1) Yamato-SS cells were maintained in vitro until exponential growth phase and inoculated subcutaneously into BALB/c nude mice at the right flank for tumor development. Treatments of Compound 172 were started at the appropriate tumor volume. Mice were treated with 40 mg/kg PO QD of Compound 172 and tumor volumes (x-axis) were measured twice a week using a caliper. The x-axis is time after start of treatment measured in days and the y-axis is tumor volume measured in mm^3.
Yamato-SS cells were maintained in vitro until exponential growth phase and inoculated subcutaneously into BALB/c nude mice at the right flank. Treatments of Compound 172 were started at the appropriate tumor volume. Mice were randomized into groups and treated with 6, 17, or 50 mg/kg PO QD of Compound 172 and tumor volumes (x-axis) were measured twice a week using a caliper. The x-axis is time after start of treatment measured in days and the y-axis is tumor volume measured in mm^3.
as §1, with “176” for “172”, “treated as indicated” for “treated”, “with” for “with 40 mg/kg PO QD of”

[4] = tested on: Yamato (SS18-SSX fusion; BAF perturbed) cells; assay: Confluence perturbation (IncuCyte S3) in Yamato cells; format: cell-based; settings: 10 nM to 10^4 nM, single dose, 20-day period; FIG. 4, 16, 17; SW982 cells also tested
Experimental: FIG. 4, FIG. 16, and FIG. 17 are line graphs illustrating the confluence caused by Compound 172 and Compound 176 at various concentrations. The x-axis is time measured in days and the y axis is confluence measured as a percentage of control. The compounds were incubated at 10 nM, 32 nM, 100 nM, 316 nM, 1000 nM, and 10^4 nM concentrations at a single dose. The compounds were tested in a Yamato (SS18-SSX fusion; BAF perturbed) cells and SW982 (BAF wildtype) cells.
Compound 172 was serially diluted in DMSO and 200 nL were dispensed into 96 well tissue-culture treated plates by the Echo acoustic liquid handler. Yamato cells were counted and adjusted to 11,000 cells/mL with DMEM media supplemented with 10% heat-inactivated FBS. 200 ul of the cell suspension was dispensed into each well. The plate was sealed with a gas-permeable membrane and confluence was measured in a temperature- and humidity-controlled incubator (37° C., 5% CO2) over a 20-day period at 6-hour intervals by the IncuCyte S3. […]
Compound 176 and a comparator BRD9 inhibitor were serially diluted in DMSO and 200 nL were dispensed into 96 well tissue-culture treated plates by the Echo acoustic liquid handler. Yamato cells were counted and adjusted to 11,000 cells/mL with DMEM media supplemented with 10% heat-inactivated FBS. […]

Sequence of hERG (Q12809 whole entry): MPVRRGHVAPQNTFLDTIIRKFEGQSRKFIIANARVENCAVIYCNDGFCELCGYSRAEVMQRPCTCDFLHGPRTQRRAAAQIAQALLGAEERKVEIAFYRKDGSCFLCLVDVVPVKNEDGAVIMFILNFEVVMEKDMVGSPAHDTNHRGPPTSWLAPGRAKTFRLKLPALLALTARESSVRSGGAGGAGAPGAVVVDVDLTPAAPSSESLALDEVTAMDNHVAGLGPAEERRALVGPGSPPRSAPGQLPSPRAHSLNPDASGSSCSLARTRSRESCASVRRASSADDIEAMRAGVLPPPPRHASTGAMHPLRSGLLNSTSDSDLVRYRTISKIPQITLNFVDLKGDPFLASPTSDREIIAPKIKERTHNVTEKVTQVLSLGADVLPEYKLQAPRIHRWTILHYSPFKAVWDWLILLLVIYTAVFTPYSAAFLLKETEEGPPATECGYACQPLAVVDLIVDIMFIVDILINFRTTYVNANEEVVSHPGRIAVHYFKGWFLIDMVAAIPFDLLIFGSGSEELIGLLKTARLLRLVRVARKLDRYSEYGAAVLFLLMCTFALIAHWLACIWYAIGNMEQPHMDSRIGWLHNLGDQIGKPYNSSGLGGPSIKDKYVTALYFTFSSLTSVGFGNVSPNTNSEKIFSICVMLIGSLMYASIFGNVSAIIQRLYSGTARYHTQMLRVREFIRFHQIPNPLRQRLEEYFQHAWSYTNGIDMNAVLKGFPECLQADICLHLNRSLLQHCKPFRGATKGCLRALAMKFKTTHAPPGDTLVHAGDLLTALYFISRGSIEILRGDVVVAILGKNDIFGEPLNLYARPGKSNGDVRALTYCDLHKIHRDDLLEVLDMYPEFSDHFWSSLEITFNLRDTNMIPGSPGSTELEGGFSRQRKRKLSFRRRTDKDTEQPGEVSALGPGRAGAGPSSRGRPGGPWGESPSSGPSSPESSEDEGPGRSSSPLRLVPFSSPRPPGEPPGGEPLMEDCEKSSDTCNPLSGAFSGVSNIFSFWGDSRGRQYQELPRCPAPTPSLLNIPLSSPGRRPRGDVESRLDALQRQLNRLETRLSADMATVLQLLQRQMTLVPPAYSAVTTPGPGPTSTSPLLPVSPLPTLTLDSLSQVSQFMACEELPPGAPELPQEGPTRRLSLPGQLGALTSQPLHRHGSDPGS

Compound | Stability (plasma) % remaining @3 hrs (Plasma stability, mouse) [%] | Stability (plasma) % remaining @3 hrs (Plasma stability, dog) [%] | fraction unbound (PPB, mouse) | fraction unbound (PPB, rat) | fraction unbound (PPB, dog) | fraction unbound (PPB, human) | CLint scaled [1] [mL/min/kg] | CLint scaled [2] [mL/min/kg] | CLint scaled [3] [mL/min/kg] | IC50 (hERG) [µM] | IV PK AUC(0-last) (IV PK, rat) | IV PK Cmax (IV PK, rat) | clearance (IV PK, rat) [mL/min/kg] | Vd (IV PK, rat) [L/kg] | half-life (IV PK, rat) [h] | PO PK AUC(0-last) (PO PK, rat) | PO PK Cmax (PO PK, rat) | bioavailability (PO PK, rat) [%] | half-life (PO PK, rat) [h] | confluence as a percentage of control [4] | also measured
COc1cc(-c2cn(C)c(=O)c(C)c2C)cc(OC)c1CN1CCC(N2CCN(c3ccc(NC4CCC(=O)NC4=O)cc3F)CC2)C(F)(F)C1 (single isomer, unassigned) [Compound 176, 3-[4-[4-[1-[[2,6-dimethoxy-4-(1,4,5-trimethyl-6-oxo-3-pyridyl)phenyl]methyl]-3,3-difluoro-4-piperidyl]piperazin-1-yl]-3-fluoro-anilino]piperidine-2,6-dione] | 85 | 100 | 0.034 | 0.098 | 0.065 | 0.067 | 14.2 | 8.6 | 9.4 | > 30 | 771 (h*ng/mL)/(mg/kg) | 439 [ng/mL]/(mg/kg) | 21.6 | 6.7 | 4 | 656 (h*ng/mL)/(mg/kg) | 75 (ng/mL)/(mg/kg) | 83 | 5.1 | A dose response is clearly visible | confluence as a percentage of control, single dose long term growth evaluation (Yamato-SS cells; BAF perturbed Yamato-SS model, various concentrations, FIG. 16): selective growth inhibition; tumor volume after treatment, Yamato-SS xenograft (Yamato-SS; treated as indicated, FIG. 21): strong effect
COc1cc(-c2cn(C)c(=O)c(C)c2C)cc(OC)c1CN1CCC(N2CCN(c3ccc(NC4CCC(=O)NC4=O)cc3F)CC2)C(F)(F)C1 (stereo not drawn) [Compound 172, 3-[4-[4-[1-[[2,6-dimethoxy-4-(1,4,5-trimethyl-6-oxo-3-pyridyl)phenyl]methyl]-3,3-difluoro-4-piperidyl]piperazin-1-yl]-3-fluoro-anilino]piperidine-2,6-dione] | 90.3 | 80.2 | 0.018 | 0.083 | 0.039 | 0.088 | 15 | 2 | 9.4 | > 30 | 1230 (h*ng/mL)/(mg/kg) | 517 [ng/mL]/(mg/kg) | 16 | 7.9 | 9.5 | 520 (h*ng/mL)/(mg/kg) | 92 (ng/mL)/(mg/kg) | 49 | 4.3 | A dose response is clearly visible | confluence as a percentage of control over time (Yamato-SS cells; Yamato-SS cells, FIG. 4): growth inhibition; tumor volume after treatment, Yamato-SS xenograft (Yamato-SS; 40 mg/kg PO QD, FIG. 1): strong effect; tumor volume after treatment, Yamato-SS xenograft, dose response (Yamato-SS; 6, 17, or 50 mg/kg PO QD, FIG. 7): dose dependent efficacy
